Assay: Retention time of the compound in human liver microsomes after 5 mins in presence of NADPH by LC-MS/MS analysis
Format: ADME, Microsome

Retention_time: 3.37 min
SMILES: CSc1nc(C)cc([S+](C)[O-])c1NC(=O)CN1CCN(CCSc2nc3ccccc3[nH]2)CC1 (stereo unspecified)
